The values that follow come from patent US7553979B2, “HSP90-inhibiting zearalanol compounds and methods of producing and using same” (Conforma Therapeutics Corporation, priority 2001, dated 2009).

For orientation: pIC50 means the IC50 on a negative log10 scale, so that one unit is a factor of ten.

The experiment concerns HER2. Briefly: HER2 inhibition assay (Her-2 degradation by flow cytometry in MCF-7 cells, as manifestation of HSP90 inhibition). The format is cell-based. The procedure: MCF-7 cells are seeded in 24 well plates at a density of approximately 30,000 cells/well and allowed to grow for 16 hours in DMEM supplemented with 10% FBS. Drug (a compound as specified in Table I) is then added at a concentration range of 100 μM to 0.01 uM. Cells are incubated for an additional […]. Drug treated cells and untreated control cells are trypsinized, and incubated at room temperature for 15 minutes with anti Her-2 neu Ab conjugated with phycoerythrin (Becton Dickinson, San Jose Calif.; Cat no. 340552) at a concentration of 0.25 ug/ml, or non-specific control IgGl conjugated with phycoerytirin (Becton Dickinson, San Jose Calif.; Cat no. 340761). Samples were analyzed using a FACS Calibur flow cytometer (Becton Dickinson) equipped with Argon-ion laser that which emits 15 mW of 488 nm light for excitation of the phycoerythrin fluorochrome. 10,000 events were collected per sample. A fluorescence histogram was generated and the mean fluorescence intensity (mfi) of each sample was determined using Cellquest software. The background was defined as the mfi generated from cells incubated with control IgG, and was subtracted from each sample stained with the HER-2/neu Ab. Percent degradation of Her-2 was calculated as follows: % Her-2 degradation=(mfi HER-2 sample)/(mfi HER-2 untreated cells)×100
Compounds of the following formula (constituents as described in Table I) were acquired from Sigma Aldrich (Milwaukee, Wis.) and evaluated for HSP90 inhibition as manifested by HER2 degradation.
The following compounds were synthesized and evaluated for Her 2 degradation, with the results reflected in Table 3.
For orientation: In flow cytometry, cells or beads pass a laser one at a time.

[1] abbreviates: HER2 degradation, commercially acquired compounds (Sigma Aldrich), Table I, read-out: HER2 IC50.
Where [2] appears, read: synthesized compounds, Table 3, read-out: IC50 (Her 2 degradation).

pIC50: −log10 of the molar value. Read-outs that look alike come from different tables or passages of the source.

Turning to `C[C@H]1CCCC(=O)CCC/C=C/c2cc(O)cc(O)c2C(=O)O1` [2 (zearalenone), zearalenone, reference compound], under setting [1], the pIC50 was 5.15. Turning to `C[C@H]1CCCC(=O)CCCCCc2cc(O)cc(O)c2C(=O)O1` [1 (zearalanone), zearalanone, reference compound], the negative logarithm of the IC50 (pIC50) under setting [1] was 4.89. Take `COc1cc(OC(C)=O)c2c(c1C(C)=O)OCCCCC=CCCCCOC2=O` [Example 2.2, 1-acetoxy-3-methoxy-4-acetyl-6,7,8,9,12,13,14,15-octahydro-5,16-dioxa-benzocyclopentadecen-17-one]: under setting [2], the pIC50 is 4.40. Same read-out and setting: the figure for `COc1cc2c(c(OC(C)=O)c1)C(=O)OCCCCC=CCCCCO2` [Example 2.1, 1-acetoxy-3-methoxy-6,7,8,9,12,13,14,15-octahydro-5,16-dioxa-benzocyclopentadecen-17-one] is 5.00.

With `COc1cc(O)c2c(c1)OCCCCCC(=O)CCCCOC2=O` [Example 3.2, 1-Hydroxy-3-methoxy-6,7,8,9,12,13,14,15-octahydro-11H-5,16-dioxa-benzocyclopentadecene-11,17-dione], the pIC50 under setting [2] is 4.80.

As for `COc1cc(O)c2c(c1)/C=C/CCCC(=O)CCC(C)OC2=O` (stereo not shown) [Example 7, 4-hydroxy-2-methoxy-7-methyl-8,9,12,13-tetrahydro-7H,11H-6-oxa-benzocyclotridecene-5,10-dione], the pIC50 under setting [2] is 4.22.

As to `COc1cc(O)c2c(c1)OCCCC(O)C(O)CCCOC2=O` (stereo not shown) [Example 4, 1,9,10-Trihydroxy-3-methoxy-6,7,8,9,10,11,12,13-octahydro-5,14-dioxa-benzocyclotridecen-15-one], the negative-log IC50 (pIC50) under setting [2] was 4.92. Regarding `C[C@H]1CCC[C@@H](O)CCCCCc2cc(O)cc(O)c2C(=O)O1` [4 (β-zearalanol), β-zearalanol, reference compound], the pIC50 under setting [1] is 5.40.

Turning to `COc1cc(O)c2c(c1)OCCCCC(=O)CCCCCOC2=O` [Example 3.1, 1-hydroxy-3-methoxy-6,7,8,9,12,13,14,15-octahydro-11H-5,16-dioxa-benzocyclopentadecene-10,17-dione], under setting [2], the pIC50 is 4.52. For the molecule `COc1cc2c(c(OC(C)=O)c1)C(=O)OCCC/C=C\CCCO2` [Example 5.1, (9Z)-1-acetoxy-3-methoxy-6,7,8,11,12,13-hexahydro-5,14-dioxa-benzocyclotridecen-15-one], the negative logarithm of the IC50 (pIC50) under setting [2] was 4.89. For the molecule `C[C@H]1CCC[C@H](O)CCC/C=C/c2cc(O)cc(O)c2C(=O)O1` [5 (α-zearalenol), α-zearalenol, reference compound], the negative logarithm of the IC50 (pIC50) under setting [1] was 4.40. Consider `COc1cc2c(c(OC)c1)C(=O)OC(C)CCC(=O)CCC/C=C/2` (stereo not shown) [Example 6, 2,4-dimethoxy-7-methyl-8,9,12,13-tetrahydro-7H,11H-6-oxa-benzocyclotridecene-5,10-dione], for which the pIC50 under setting [2] is 4.05. `C[C@H]1CCC[C@H](O)CCCCCc2cc(O)cc(O)c2C(=O)O1` [3 (α-zearalanol), α-zearalanol, reference compound]: the pIC50 under setting [1] is 4.52. `COc1cc(O)c2c(c1)OCCCCC(O)C(O)CCCCOC2=O` (stereo not shown) [Example 1]: the pIC50 under setting [2] was 4.52. Consider `COc1cc2c(c(OC(C)=O)c1)C(=O)OCCC/C=C/CCCO2` [Example 5.2, (9E)-1-acetoxy-3-methoxy-6,7,8,11,12,13-hexahydro-5,14-dioxa-benzocyclotridecen-15-one], for which the pIC50 under setting [2] is 4.82. For the molecule `C[C@H]1CCC[C@@H](O)CCC/C=C/c2cc(O)cc(O)c2C(=O)O1` [6 (β-zearalenol), β-zearalenol, reference compound], under setting [1], the pIC50 was 6.00.
